Experimental findings from paper PMC7767506, “Synthesis and Characterization of Store-Operated Calcium Entry Inhibitors Active in the Submicromolar Range” (International Journal of Molecular Sciences, 2020) are described below.

For one data set, the target named is T1, IP3R1 (Mus musculus, UniProt P11881).
T1 construct: expressed in transfected cells; host or cells: L15 fibroblast cell line (gift of Katsuhiko Mikoshiba), saponin-permeabilized
Kind of data set: IP3-induced Ca2+ release (IICR) in permeabilized L15 fibroblasts overexpressing IP3R1. The format is cell-based. On the procedure: Measurements of SERCA-mediated ^45Ca^2+ store loading and IP3-dependent release from the ER Ca^2+ store were performed on permeabilized cells in unidirectional conditions. As this approach required the use of cells forming strongly adherent monolayers, we used L15 fibroblasts stably overexpressing IP3R1, similarly to our previous work.
The L15 fibroblasts stably overexpressing IP3R1 were seeded in gelatin-coated 12-well plates (Greiner, Frickenhausen, Germany) at a density of 60,000 cells per well. Unidirectional ^45Ca^2+ flux experiments on confluent cell monolayers were performed at 30 °C after membrane permeabilization with saponin (40 µg/mL), exactly as previously described. After permeabilization, the non-mitochondrial Ca^2+ stores were loaded for 45 min in 120 mM KCl, 30 mM imidazole–HCl (pH 6.8), 5 mM MgCl2, 5 mM ATP, 0.44 mM EGTA, 10 mM NaN3, and 150 nM free ^45Ca^2+ (28 µCi mL^−1). Subsequently, efflux was initiated by incubation in efflux medium (120 mM KCl, 1 mM EGTA, 10 µM TG and 30 mM imidazole–HCl pH 6.8). The latter medium was replaced every two minutes for 18 minutes. The exact amount of Ca^2+ at each time point is calculated by summing in retrograde order the amount of radioactivity remaining in the cells at the end of the efflux and the radioactivity collected during the successive time intervals. This allows to calculate the steady-state content of the ER Ca^2+ stores (indicative for the SERCA activity, after subtraction of the loading achieved in the presence of 2 µM TG) the basal leak rate of Ca^2+ out of the stores and the IP3-induced Ca^2+ release after addition of IP3 (0.7 µM). These various parameters were measured both in control conditions or in the presence of various 2-APB analogs as indicated. To assess the effect of the 2-APB analogs on the SERCA-mediated loading of the ER Ca^2+ stores, the analogs were added during the ^45Ca^2+-loading phase as described previously. […]

The subject of a further data set is Jurkat cells. Kind of data set: TUNEL apoptosis assay in Jurkat cells. The format is cell-based, human. The protocol:
To verify the mechanism of cell death induced by compound P11, we next performed caspase-3 activity assays using the fluorogenic Ac-DEVD-AFC substrate as well as a TUNEL assay.
We measured the apoptosis levels in Jurkat cells by the “in situ cell death detection” kit (Roche Applied Science, Meylan, France). Briefly, 50,000 cells/well were seeded in a 96-well plate and treated with or without 10 µg/mL PHA and 0 to 1 µM P11 for 6, 12, or 24 h. Cells were spun, fixed, and permeabilized according to the manufacturer’s instructions and the terminal transferase dUTP Nick end labelling reaction was performed in the dark during 60 min at 37 °C. For visualization of the results, an epifluorescence microscope (Axioskop, Karl Zeiss, Le Pecq, France) was used at an excitation wavelength of 488 nm, and an emission wavelength of 545 nm. Cells were also loaded with 4’,6’ –diamidino-2-phenylindole (DAPI) to visualize the nuclei. Total cell number (>200) and TUNEL-positive cells were counted in several fields (>5) and the ratio of apoptotic cells was calculated. This experiment was repeated three times.

Data set [1] relates to Orai1-deficient lymphoblastoid cell line. Kind of data set: SOCE in Orai1-deficient lymphoblastoid cell line (LCL Orai1-). It is filed as cell-based, human. As to conditions: 1 µM. On the procedure: We next tested P11 efficacy on two lymphoblastoid cell lines (“LCL”) established from an Orai1-deficient with a severe combined immunodeficiency (“LCL Orai1−”) and a healthy (“LCL Orai1+”) patients (Figure 3C [19]). […] However, CaCl2 addition after 10 min of TG treatment was only able to induce a massive [Ca^2+]cyt rise in LCL expressing Orai1 proteins, confirming the SOCE default of the SCID patient.
[Ca^2+]cyt was recorded by a fluorimetric ratio technique as previously described. Leukocytes were spun and resuspended at a density of 10^6 cells/mL in Hepes buffered saline (HBS; 135 mM NaCl, 5.9 mM KCl, 1.2 mM MgCl2, 11.6 mM Hepes, 11.5 mM glucose adjusted to pH 7.3 with NaOH). Due to the presence of 0.002% Ca^2+ in the NaCl, this HBS medium contained 0.1 mM of Ca^2+. […] Ultraviolet light of 360 nm was used for excitation of Indo-1, and emissions at 405 and 480 nm were recorded. […] The maximum Indo-1 fluorescence (Rmax) was obtained by adding 1 µM ionomycin to the cell suspension in the presence of 10 mM extracellular CaCl2. Minimum fluorescence was determined following the depletion of external Ca^2+ with 5 mM EGTA.
To visualize the SOCE, cells were placed into the quartz cuvette and 0.5 EGTA was added just before the beginning of the recordings. […] In the dose-response experiments, different concentrations of 2-APB and its analogs were added 30 s prior to Ca^2+ readdition.

“Also recorded” adds a separate entry of the source.

T1 sequence (P11881 whole entry): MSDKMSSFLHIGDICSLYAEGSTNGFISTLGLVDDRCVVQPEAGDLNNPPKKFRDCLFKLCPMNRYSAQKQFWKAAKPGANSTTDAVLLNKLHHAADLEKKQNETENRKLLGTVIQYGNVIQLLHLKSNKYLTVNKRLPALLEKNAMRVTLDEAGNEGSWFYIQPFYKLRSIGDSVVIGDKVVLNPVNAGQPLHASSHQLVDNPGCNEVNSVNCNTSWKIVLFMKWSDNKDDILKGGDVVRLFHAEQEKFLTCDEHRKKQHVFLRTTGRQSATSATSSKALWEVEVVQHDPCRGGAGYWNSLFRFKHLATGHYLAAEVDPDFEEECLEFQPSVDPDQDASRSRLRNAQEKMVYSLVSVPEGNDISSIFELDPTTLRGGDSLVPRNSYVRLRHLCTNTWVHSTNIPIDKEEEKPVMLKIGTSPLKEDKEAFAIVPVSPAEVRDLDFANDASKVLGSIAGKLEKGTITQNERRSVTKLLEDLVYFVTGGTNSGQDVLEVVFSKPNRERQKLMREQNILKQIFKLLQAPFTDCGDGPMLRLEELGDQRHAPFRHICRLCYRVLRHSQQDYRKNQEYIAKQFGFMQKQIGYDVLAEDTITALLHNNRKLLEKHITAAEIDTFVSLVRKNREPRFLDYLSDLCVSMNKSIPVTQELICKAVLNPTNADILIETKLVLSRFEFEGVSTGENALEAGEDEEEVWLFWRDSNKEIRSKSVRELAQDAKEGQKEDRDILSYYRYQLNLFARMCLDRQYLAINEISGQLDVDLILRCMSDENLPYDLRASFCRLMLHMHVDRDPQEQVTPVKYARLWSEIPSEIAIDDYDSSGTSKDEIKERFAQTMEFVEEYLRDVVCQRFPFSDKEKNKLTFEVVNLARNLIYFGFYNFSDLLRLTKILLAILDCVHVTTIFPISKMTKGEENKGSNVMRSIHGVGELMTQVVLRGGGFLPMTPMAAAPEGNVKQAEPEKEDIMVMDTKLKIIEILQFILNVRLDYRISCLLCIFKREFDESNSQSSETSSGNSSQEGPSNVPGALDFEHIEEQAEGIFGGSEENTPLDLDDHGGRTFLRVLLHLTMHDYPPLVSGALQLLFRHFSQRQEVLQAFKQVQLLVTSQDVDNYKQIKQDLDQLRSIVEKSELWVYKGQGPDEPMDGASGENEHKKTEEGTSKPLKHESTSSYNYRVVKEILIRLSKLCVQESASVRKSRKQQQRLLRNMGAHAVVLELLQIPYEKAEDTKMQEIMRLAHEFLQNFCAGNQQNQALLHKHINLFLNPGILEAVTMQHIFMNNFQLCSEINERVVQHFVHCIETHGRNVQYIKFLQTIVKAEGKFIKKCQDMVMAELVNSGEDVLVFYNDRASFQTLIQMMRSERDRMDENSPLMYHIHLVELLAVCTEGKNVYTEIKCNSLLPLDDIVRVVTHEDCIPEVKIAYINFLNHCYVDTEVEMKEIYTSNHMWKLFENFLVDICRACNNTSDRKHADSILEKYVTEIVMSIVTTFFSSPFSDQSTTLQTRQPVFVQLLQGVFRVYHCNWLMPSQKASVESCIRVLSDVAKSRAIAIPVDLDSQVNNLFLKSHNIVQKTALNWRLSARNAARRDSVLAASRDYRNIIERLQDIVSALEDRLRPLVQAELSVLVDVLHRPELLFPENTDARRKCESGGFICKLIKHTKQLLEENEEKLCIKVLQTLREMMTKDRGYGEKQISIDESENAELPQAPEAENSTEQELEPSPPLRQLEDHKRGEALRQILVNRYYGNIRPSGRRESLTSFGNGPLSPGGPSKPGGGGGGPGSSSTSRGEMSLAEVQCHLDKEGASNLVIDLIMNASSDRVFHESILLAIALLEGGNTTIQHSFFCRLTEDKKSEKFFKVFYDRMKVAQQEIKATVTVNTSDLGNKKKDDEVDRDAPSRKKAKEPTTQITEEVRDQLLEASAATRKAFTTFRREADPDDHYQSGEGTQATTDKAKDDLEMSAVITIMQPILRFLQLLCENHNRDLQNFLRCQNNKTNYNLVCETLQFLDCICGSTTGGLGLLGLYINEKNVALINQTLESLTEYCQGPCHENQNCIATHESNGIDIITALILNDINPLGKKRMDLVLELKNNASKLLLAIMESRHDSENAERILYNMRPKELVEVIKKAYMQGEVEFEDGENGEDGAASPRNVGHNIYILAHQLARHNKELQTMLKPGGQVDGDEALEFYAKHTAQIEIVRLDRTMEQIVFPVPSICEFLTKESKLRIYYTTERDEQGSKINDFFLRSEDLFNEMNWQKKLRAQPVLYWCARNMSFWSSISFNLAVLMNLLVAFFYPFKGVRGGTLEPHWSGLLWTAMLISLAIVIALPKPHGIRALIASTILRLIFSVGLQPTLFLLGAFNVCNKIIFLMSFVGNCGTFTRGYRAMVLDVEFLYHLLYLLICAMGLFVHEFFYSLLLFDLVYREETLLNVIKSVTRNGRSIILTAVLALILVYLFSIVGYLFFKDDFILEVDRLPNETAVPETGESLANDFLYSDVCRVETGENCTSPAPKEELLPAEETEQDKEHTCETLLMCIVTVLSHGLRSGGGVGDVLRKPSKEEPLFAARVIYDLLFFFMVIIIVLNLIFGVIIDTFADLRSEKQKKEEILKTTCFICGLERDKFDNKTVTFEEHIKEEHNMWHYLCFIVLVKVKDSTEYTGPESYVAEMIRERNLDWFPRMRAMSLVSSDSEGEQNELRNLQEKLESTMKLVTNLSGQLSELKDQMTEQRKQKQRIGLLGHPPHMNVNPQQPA

For “2-(dibiphenyl-4-ylboryloxy)ethanamine [P11]”, the “change of IP3R activity” value on IP3R1 (100 µM) was −29 ± 9%. The “effect on IP3R” value at IP3R1 (concentrations < 1 µM) is listed as “devoid of any inhibitory activity; also recorded: without any effect”. In addition, the “apoptotic cells (TUNEL)” value in the data set on Jurkat cells (1 µM P11 alone, 24 h) is given as ~ 5%. In addition, in the data set with Jurkat cells (10 µg/mL PHA + 1 µM P11, 24 h), the “cells with fragmented DNA (TUNEL)” value was found to be 17.9 ± 1.2%. For the same substance, the “fold increase of cells with fragmented DNA” value in the data set with Jurkat cells (PHA + P11 at concentrations > 10 nM, vs resting conditions) is given as “≈ 4.5 fold”. Moreover, the “fold increase of apoptotic cells” value with Jurkat cells (costimulation PHA + P11 > 10 nM, vs PHA alone (Figure 7 legend)) was “≈ 1.5 fold”. In data set [1], the “effect on [Ca2+]cyt after SOCE activation” value is recorded as “inefficient”.
